# From patent EP4740946A1, “METHOD FOR TREATING PROSTATE CANCER” (Jiangsu Hengrui Pharmaceuticals Co., Ltd., priority 2023, dated 2025)
# What was measured:
# Type in all cases: in vivo, human
# [1] = Phase I clinical study, clinical safety (DLT, TEAEs, treatment-related AEs)
# Source text: • Incidence of dose limiting toxicity (DLT) • MTD (if available) and RP2D;
# (§1) • Incidence, severity (graded according to CTCAE v5.0), and correlation with the study drug of adverse events (AEs) and serious adverse events (SAEs), also including abnormalities in vital signs, electrocardiogram, and laboratory tests; • PK parameters of the compound of formula I after single/multiple administrations, including but not limited to: • single administration parameters: peak plasma concentration (Cmax), time to peak (Tmax), area under the concentration-time curve from time zero to the last detectable concentration time point t (AUC0-t), area under the concentration-time curve from time zero to infinity (AUC0-inf) (if applicable), half-life (t1/2) (if applicable), apparent volume of distribution (Vz/F) (if applicable), and apparent clearance (CL/F) (if applicable); • multiple administration parameters: steady-state peak concentration (Cmax, ss), time to peak (Tmax, ss), steady-state trough concentration (Cmin, ss), area under the steady-state plasma concentration-time curve (AUCss), and drug accumulation ratio (Rac). • Pharmacokinetic (PK) of midazolam: pharmacokinetic parameters of midazolam in patients after administration of a microdose of midazolam before (D-1) and after (D15) multiple oral administrations of the compound of formula I, including: Tmax, Cmax, AUC0-t, AUCO-∞, t1/2, CL/F and Vz/F. • Efficacy endpoints: objective response rate (ORR), disease control rate (DCR), duration of response (DoR), radiographic progression-free survival (rPFS), PSA response rate at week 12, proportions of subjects with a decrease in PSA of ≧50% and ≧30% from baseline throughout study treatment, time to PSA progression, and overall survival (OS).
# (§2) • Tablets were orally administered in preset dose group of 30 mg, 90 mg, 180 mg, 360 mg, 540 mg or 720 mg, with one treatment cycle every 28 days. Administration was continuous until disease progression or the occurrence of unacceptable toxicity. Tablets were orally administered once daily, within 30 minutes after breakfast each morning, for consecutive administration. If intensive PK blood sampling was scheduled on a given day, the subject was forbidden to drink water 1 h and fasted 4 h before and after drug administration.
# A total of 26 tumour subjects were enrolled in this study, with 13 subjects in the dose escalation phase. There were 1, 4, 4, 3, and 1 subject(s) in 30 mg, 90 mg, 180 mg, 360 mg, and 540 mg dose groups, respectively. […] One subject was enrolled in the 540 mg dose group and remained in DLT observation, and no dose-limiting toxicity (DLT) was observed. There were 13 subjects in the dose expansion phase, and all were in the 180 mg dose group.
# PSA = assay: Phase I clinical study, clinical effectiveness (PSA response)
# Source text: as §1, §2
# A total of 17 subjects in the study received at least one post-baseline PSA test, with 1, 4, 9, and 3 subjects in 30 mg, 90 mg, 180 mg, and 360 mg dose groups, respectively. 8 of 17 subjects evaluable for PSA response experienced a PSA decrease.
# [2] = Phase I clinical study, clinical pharmacology: food effect study (fasting vs postprandial pharmacokinetics)
# Description: as §2
# There were a total of 9 patients in the food effect study.
# [3] = 180 mg oral administration under fasting conditions, patients with mCRPC
# [4] = postprandial absorption compared with fasting state, food effect study
compound,measurement,setting,value
C[C@H]1CC2(CCN(c3ccc(C(=O)N4CCC(CN5CCN(c6cccc(N[C@H]7CCC(=O)NC7=O)c6)CC5)CC4)cc3F)CC2)CN1c1ccc(C#N)c(Cl)c1 [compound of formula I],subjects who experienced AEs associated with formula I,[1]; 8 of 26 subjects,30.8%
same,subjects who experienced TEAEs,[1]; 9 of 26 tumour subjects enrolled,34.6%
same,dose-limiting toxicity (DLT),"[1]; dose escalation phase, 13 subjects, 30 mg, 90 mg, 180 mg, 360 mg and 540 mg dose groups, oral once daily",no DLT was observed
same,grade 4/5 AE,"[1]; during the study, 26 subjects",No grade 4/5 AE occurred
same,subjects who experienced grade 3 TRAE,"[1]; one of 26 subjects, decreased neutrophil count and decreased white blood cell count",3.8%
same,subjects who experienced grade 3 TEAEs,[1]; three of 26 subjects,11.5%
same,subjects who experienced a PSA decrease,"PSA; 180 mg dose group, 6 of the 9 subjects",66.7%
same,subjects achieving PSA30 (a reduction in serum PSA level of ≧ 30% from baseline during treatment),"PSA; 180 mg dose group, 9 subjects",3 subjects
same,subjects achieving PSA90 (a reduction in serum PSA level of ≧ 90% from baseline during treatment),"PSA; 180 mg dose group, 9 subjects",1 subject
same,subjects who experienced a PSA decrease,"PSA; of 17 subjects evaluable for PSA response, 30 mg, 90 mg, 180 mg and 360 mg dose groups",8 subjects
same,geometric mean (% geometric coefficient of variation) of apparent volume of distribution,[2]; [3],1260 (90.7) L
same,geometric mean (% geometric coefficient of variation) of clearance,[2]; [3],21.5 (83.4) L/h
same,median time to peak,[2]; [3],3 h
same,half-life,"[2]; male, human, plasma, 180 mg oral administration under fasting conditions, patients with mCRPC, food effect study (9 patients), read-out: mean half-life (± standard deviation) (converted)",2450 ± 262 min
same,"AUC, postprandial versus fasting state",[2]; [4],2.54 fold
same,"Cmax, postprandial versus fasting state",[2]; [4],3.06 fold
same,time to peak delayed (postprandial versus fasting),[2]; postprandial compared with fasting state,3 h
same,"time to peak, postprandial",[2]; postprandial state,about 6 h
